Experimental data from patent US20070225278A1, “Methods for treating cognitive and other disorders” (priority 2006, published 2007).

System: rats
Assay: 5-choice serial reaction time test (5CSRT), variable ITI
Type: in vivo, rat
Conditions: 1 mg/kg ip, 10 and 7 sec ITI, p<0.05 vs vehicle
Description: The 5-choice serial reaction time task is a behavioral assay that is used to measure attention and impulsivity in rats. Rats are trained to respond correctly to aperture illuminations reinforced to food rewards until they reach >70% correct responses during a 30-minute baseline session. Once animals reach baseline criteria, a variable stimulus duration (SD) and variable inter-trial interval (ITI) test can be used to manipulate normal baseline performance. […] When the ITI is increased from that used during baseline training impulsivity, as measured by premature responses, is increased. Compounds and manipulations that improve attention will improve performance and those that decrease impulsivity will decrease premature responses.
5CSRT: The test apparatus consisted of ten 25×25 cm aluminum chambers (Med Associates Inc., St. Albans, Vt.). The rear wall of each chamber was concavely curved, containing five accessible apertures, each 2.5 cm square, and 4 cm deep positioned 2 cm above floor level. […]
5CSRT Training: Prior to drug treatments, rats were trained to discriminate a brief visual stimulus light presented randomly in one of the five spatial locations. […] A single nose-poke in this opening during the period of illumination (signal period), or during the 5 second afterwards (limited hold) was reinforced by the delivery of a food pellet and a correct response was recorded. […]

With `c1cc2c3c(c1)[C@H]1CCC[C@H]1N3CCNC2` [Compound 1] the premature responding was “statistically significant decrease”.
